Source: BindingDB's records for doi:10.7270/Q2TX3CSC (Vanderbilt Screening Center for GPCRs, Ion Channels and …, 2009)

molecular target: T1, Solute carrier family 12 member 5 (Homo sapiens, UniProt Q9H2X9); assay: KCC2 modulator potency by thallium flux, dose response, cell-based, HEK293 KCC2, FluoZin-2 fluorescence (AID 1736); settings: not given
T1 sequence (Q9H2X9 whole entry): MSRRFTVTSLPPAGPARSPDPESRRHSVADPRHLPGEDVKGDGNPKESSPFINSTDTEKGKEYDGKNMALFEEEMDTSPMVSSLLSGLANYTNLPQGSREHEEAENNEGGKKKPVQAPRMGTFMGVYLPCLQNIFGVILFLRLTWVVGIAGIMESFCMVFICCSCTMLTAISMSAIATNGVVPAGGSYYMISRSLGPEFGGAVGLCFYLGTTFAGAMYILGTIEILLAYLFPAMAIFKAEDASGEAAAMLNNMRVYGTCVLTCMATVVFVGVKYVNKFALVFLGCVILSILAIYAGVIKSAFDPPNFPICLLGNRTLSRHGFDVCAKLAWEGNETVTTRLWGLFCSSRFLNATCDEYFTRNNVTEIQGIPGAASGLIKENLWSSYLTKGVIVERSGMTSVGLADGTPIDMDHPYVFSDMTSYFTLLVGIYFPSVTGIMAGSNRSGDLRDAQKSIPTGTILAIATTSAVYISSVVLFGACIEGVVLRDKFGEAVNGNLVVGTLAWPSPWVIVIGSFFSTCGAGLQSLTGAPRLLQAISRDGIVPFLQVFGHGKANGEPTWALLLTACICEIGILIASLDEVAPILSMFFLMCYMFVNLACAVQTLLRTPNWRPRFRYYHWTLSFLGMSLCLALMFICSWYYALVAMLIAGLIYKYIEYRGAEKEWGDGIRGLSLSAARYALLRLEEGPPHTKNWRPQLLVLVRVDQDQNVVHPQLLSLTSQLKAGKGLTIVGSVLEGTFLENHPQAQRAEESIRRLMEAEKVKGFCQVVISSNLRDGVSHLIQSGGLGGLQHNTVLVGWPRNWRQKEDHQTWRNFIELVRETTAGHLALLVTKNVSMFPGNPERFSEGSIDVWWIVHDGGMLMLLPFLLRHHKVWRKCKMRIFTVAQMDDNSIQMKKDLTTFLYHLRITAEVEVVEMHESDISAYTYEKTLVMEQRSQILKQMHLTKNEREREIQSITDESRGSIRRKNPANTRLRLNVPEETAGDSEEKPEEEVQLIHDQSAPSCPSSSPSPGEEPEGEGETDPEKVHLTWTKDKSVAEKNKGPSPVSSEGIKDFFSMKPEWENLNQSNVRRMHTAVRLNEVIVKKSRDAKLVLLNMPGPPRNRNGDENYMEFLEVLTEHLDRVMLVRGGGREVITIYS

| SMILES | EC50 |
| --- | --- |
| Cc1ccc(C(=O)O)cc1-c1ccc(C=C2NC(=O)N(c3ccccc3)C2=O)o1 [3-[5-[(E)-(2,5-dioxo-1-phenylimidazolidin-4-ylidene)methyl]furan-2-yl]-4-methylbenzoic acid] | 14.8 µM |
| Cc1ccc(-c2csc(NC(=O)CCNC(=O)c3ccccc3Cl)n2)cc1 [2-chloranyl-N-[3-[[4-(4-methylphenyl)-1,3-thiazol-2-yl]amino]-3-oxidanylidene-propyl]benzamide] | 2.49 µM |
| COc1ccc(N2C(=S)N=C(Nc3cccc(C)c3)C23CCCCC3)cc1 [1-(4-methoxyphenyl)-4-(3-methylanilino)-1,3-diazaspiro[4.5]dec-3-ene-2-thione] | 771 µM |
| CCOc1[nH]n(-c2ccccc2)c(=O)c1C=Nc1ccc(F)cc1F [(4E)-4-[[[2,4-bis(fluoranyl)phenyl]amino]methylidene]-5-ethoxy-2-phenyl-pyrazol-3-one] | 0.461 µM |
| CCc1ccc(OCCNC(=O)c2ccccc2SCc2ccc(F)cc2)cc1 [MLS000577152] | 1.38 µM |
| CC1Cc2ccccc2N1C(=O)c1ccc(N2CCCCC2)c([N+](=O)[O-])c1 (stereo unspecified) [(2-methyl-2,3-dihydroindol-1-yl)-(3-nitro-4-piperidin-1-yl-phenyl)methanone] | 0.92 µM |
| O=C(NC1CCCC1)C(c1ccncc1)N(Cc1ccco1)C(=O)c1ccc(-c2ccccc2)[nH]1 (stereo unspecified) [MLS000718066] | 19.2 µM |
| O=C(NN1C(=O)/C(=C/c2nc3ccccc3[nH]2)SC1=S)c1ccccc1 [N-[(5Z)-5-(1H-benzimidazol-2-ylmethylidene)-4-oxidanylidene-2-sulfanylidene-1,3-thiazolidin-3-yl]benzamide] | 0.38 µM |
| O=C(CNC(=O)/C(=C\c1ccc(Br)cc1)NC(=O)c1ccccc1)OCc1ccccc1 [(phenylmethyl) 2-[[(E)-2-benzamido-3-(4-bromophenyl)prop-2-enoyl]amino]ethanoate] | 0.993 µM |
| Sc1nnc(Nc2ccccc2)s1 [5-anilino-3H-1,3,4-thiadiazole-2-thione] | 2.84 µM |
| Cn1c(CSc2nc3ccccc3s2)nc2ccccc21 [2-(1-Methyl-1H-benzoimidazol-2-ylmethylsulfanyl)-benzothiazole] | 14.8 µM |
| c1ccc(-c2nnc(Sc3ncnc4c3cnn4-c3ccccc3)[nH]2)cc1 [SMR000019566] | 5.95 µM |
| Cc1ccc(-c2n[nH]c(=S)n2NC=CCc2ccccc2[N+](=O)[O-])cc1 | 1.62 µM |
| O=C(OCn1ncc(Cl)c(Cl)c1=O)c1ccc(F)cc1 [(4,5-dichloro-6-oxopyridazin-1-yl)methyl 4-fluorobenzoate] | 14.1 µM |
| O=C(NCCc1csc(-c2ccccc2)n1)c1cccs1 [MLS000102716] | 174 µM |
| O=c1[nH]c2c(s1)C(c1ccccc1)c1c(c(O)n(-c3ccccc3)c1O)S2 (stereo unspecified) | 0.0665 µM |
| O=C(CSc1nnnn1-c1ccc(Cl)cc1)N1CCc2ccccc2C1 [2-[1-(4-chlorophenyl)tetrazol-5-yl]sulfanyl-1-(3,4-dihydro-1H-isoquinolin-2-yl)ethanone] | 4.09 µM |
| O=C(CC(C(=O)N1CCc2ccccc21)n1ccnc1)N1CCc2ccccc2C1 (stereo unspecified) [1-(2,3-dihydroindol-1-yl)-4-(3,4-dihydro-1H-isoquinolin-2-yl)-2-(1-imidazolyl)butane-1,4-dione] | 1770 µM |

| SMILES | EC50 |
| --- | --- |
| O=C(NNc1nc(-c2ccccc2)cs1)c1cccs1 [MLS000858987] | 0.174 µM |
| Cc1ccc(S(=O)(=O)N(CCC(=O)O)Cc2ccc(Cl)cc2)cc1 [3-[(4-chlorobenzyl)-tosyl-amino]propionic acid] | 0.491 µM |
| Cc1nn(C)c(C)c1C=C1SC(S)=NC1=O [MLS000324943] | 51.2 µM |
| O=C(Nc1ccc2oc(-c3ccccc3F)nc2c1)c1ccco1 [MLS000709180] | 66.5 µM |
| CCn1c(=O)n(CC)c2cc(S(=O)(=O)N3CCC(c4ccccc4)CC3)ccc21 [1,3-diethyl-5-(4-phenylpiperidin-1-yl)sulfonyl-benzimidazol-2-one] | 10.8 µM |
| O=C(O)/C=C/c1cn(Cc2ccccc2Cl)nc1-c1ccccc1 [(E)-3-[1-(2-chlorobenzyl)-3-phenyl-pyrazol-4-yl]acrylic acid] | 3.26 µM |
| COC(=O)c1sccc1NC(=S)OC [3-(methoxycarbothioylamino)thiophene-2-carboxylic acid methyl ester] | 1.78 µM |
| O=C(O)CC/C(=C\c1ccc(N2CCOCC2)c([N+](=O)[O-])c1)c1nc2ccccc2s1 [(E)-4-(1,3-benzothiazol-2-yl)-5-(4-morpholin-4-yl-3-nitro-phenyl)pent-4-enoic acid] | 2.66 µM |
| NC(=S)NN=C1C(=O)N(Cc2ccccc2)c2ccccc21 [1-[(Z)-[2-oxidanylidene-1-(phenylmethyl)indol-3-ylidene]amino]thiourea] | 0.295 µM |
| O=C(NN=Cc1ccccn1)c1ccccc1O [2-oxidanyl-N-(pyridin-2-ylmethylideneamino)benzamide] | 29.2 µM |
| Cc1n[nH]c(O)c1C(c1ccc(-c2ccc(F)cc2)o1)c1c(C)n[nH]c1O [4-[[5-(4-fluorophenyl)furan-2-yl]-(3-methyl-5-oxo-1,2-dihydropyrazol-4-yl)methyl]-5-methyl-1,2-dihydropyrazol-3-one] | 8.39 µM |
| O=C(NCCc1cn2ccccc2n1)c1cc(COc2c(F)cccc2F)on1 [5-[(2,6-difluorophenoxy)methyl]-N-(2-imidazo[1,2-a]pyridin-2-ylethyl)-1,2-oxazole-3-carboxamide] | 78.9 µM |
| c1ccc(-n2cnc3cc(NCc4ccncc4)ccc32)cc1 [(1-phenylbenzimidazol-5-yl)-(4-pyridylmethyl)amine] | 1.92 µM |
| O=C(NC(=S)NNC(=O)c1cnccn1)c1ccc(Cl)cc1 [4-Chloro-N-[N'-(pyrazine-2-carbonyl)-hydrazinocarbothioyl]-benzamide] | 23.3 µM |
| Cn1c(C(=O)NCCN2CCN(c3ccccc3F)CC2)cc2c(=O)n(C)c3ccccc3c21 [MLS000118132] | 3.19 µM |
| COc1cc(C(=S)N2CCOCC2)ccc1OC(=O)Cc1ccc(F)cc1 [(2-methoxy-4-morpholin-4-ylcarbothioyl-phenyl) 2-(4-fluorophenyl)ethanoate] | 29.4 µM |
| CCOc1cc(S(=O)(=O)NCc2ccccc2)ccc1F [3-ethoxy-4-fluoranyl-N-(phenylmethyl)benzenesulfonamide] | 5.92 µM |
| Cc1c(N=C2Nc3cccc4cccc2c34)c(=O)n(-c2ccccc2)n1C [4-(2-benzo[cd]indolylamino)-1,5-dimethyl-2-phenyl-3-pyrazolone] | 1.48 µM |

same assay, conditions: inactive by the depositor's call

| SMILES | EC50 |
| --- | --- |
| COc1ccc(OC)c2sc(NNC(=O)COc3ccccc3)nc12 [MLS000419249] | 2.62 µM |
| Cc1nc2c(-c3ccc(Cl)cc3)c(C)[nH]n2c(=O)c1Cc1ccccc1 [6-benzyl-3-(4-chlorophenyl)-2,5-dimethylpyrazolo[1,5-a]pyrimidin-7(4H)-one] | 43.9 µM |
| O=C(O)/C=C/c1cn(Cc2ccccc2)nc1-c1ccc(Cl)cc1 [(E)-3-[1-benzyl-3-(4-chlorophenyl)pyrazol-4-yl]acrylic acid] | 26.3 µM |
| COc1ccc(C(=O)CSc2nnnn2Cc2ccccc2)cc1 [1-(4-methoxyphenyl)-2-[[1-(phenylmethyl)-1,2,3,4-tetrazol-5-yl]sulfanyl]ethanone] | 1.68 µM |
| Cc1ccc(-c2nn(Cc3ccccc3)cc2/C=C/C(=O)O)cc1 [(E)-3-[1-benzyl-3-(4-methylphenyl)pyrazol-4-yl]prop-2-enoic acid] | 12.1 µM |
